What all share (format): cell-based
The test system of one assay is RS4; 11. The assay is described as follows: Cell growth inhibition, CellTiter-Glo Luminescent Cell Viability Assay, RS4;11. The conditions noted are these: Homo sapiens, 96 h, RS4;11 cells, 4 days incubation. As for the experimental part:
(§1) Cell growth inhibitory activity of representative Compounds of the Disclosure was determined in various cell lines using CellTiter-Glo® Luminescent Cell Viability Assay. Cells were seeded in 384-well white opaque cell culture plates at a density of 2,000 cells/well with serially diluted compounds and incubated at 37° C. in an atmosphere of 95% air and 5% CO2 for 4 days. Cell viability was determined using the CellTiter-Glo® Luminescent Cell Viability Assay Kit (Promega, Madison, Wis.) according to the manufacture's instruction. Briefly, a volume of CellTiter-Glo® Reagent equal to the volume of cell culture medium was added to each well, and then the plates were incubated at room temperature for 10-20 minutes. The luminescent signal was measured using a Tecan Infinite M1000 multimode microplate reader (Tecan, Morrisville, N.C.). The half maximal inhibitory concentration (IC50) was calculated using the GraphPad Prism 5 software (GraphPad Software, La Jolla, Calif.).
A general note: ATP-based viability assays read luminescence as a measure of living cells.

A further assay deals with MOLM-13. The assay is described as follows: Cell growth inhibition, CellTiter-Glo Luminescent Cell Viability Assay, MOLM-13. The conditions noted are these: Homo sapiens, MOLM-13 cells, 4 days incubation. The method, boiled down: (§2)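 Cells were seeded at 2,000/well with serially diluted compound and grown 4 days at 37° C, 5% CO2. Viability was read by CellTiter-Glo luminescence after 10-20 min at room temperature, and IC50 was fitted from the dose-response.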

The test system of a further assay is MDA-MB-231. Nature of the assay: Cell growth inhibition, CellTiter-Glo Luminescent Cell Viability Assay, MDA-MB-231. The note with it: Homo sapiens, MDA-MB-231 cells, 4 days incubation. An outline of the steps:
as §2

The subject of another assay is MDA-MB-468. The assay is described as follows: Cell growth inhibition, CellTiter-Glo Luminescent Cell Viability Assay, MDA-MB-468. The note with it: Homo sapiens, 96 h, MDA-MB-468 cells, 4 days incubation. As for the experimental part:
as §1

Among the data in patent US10975093B2, “Fused 1,4-diazepines as BET protein degraders” (THE REGENTS OF THE UNIVERSITY OF MICHIGAN, priority 2016, dated 2021) are IC50 values, retold here.

Broadly, the IC50 is the concentration that gives 50% inhibition. Read a low IC50 as inhibition by little substance.

With `Cc1c(C#Cc2cn(CCCCNc3cccc4c3CN(C3CCC(=O)NC3=O)C4=O)nn2)sc2c1C(c1ccc(Cl)cc1)=N[C@@H](C)c1nnc(C)n1-2` (stereo partly drawn) [Cpd. No. 6, 3-(4-((4-(4-(((S)-4-(4-chlorophenyl)-3,6,9-trimethyl-6H-thieno[3,2-f][1,2,4]triazolo[4,3-a][1,4]diazepin-2-yl)ethynyl)-1H-1,2,3-triazol-1-yl)butyl)amino)-1-oxoisoindolin-2-yl)piperidine-2,6-dione], the IC50 was less than 0.0015 nM in the assay on RS4; 11, 0.77 nM with MOLM-13 (96 h), 2.3 nM in the assay with MDA-MB-231 (96 h) and 1.7 nM with MDA-MB-468.
On the same counts, the results for `Cc1c(C#Cc2ccc(CCCCNc3cccc4c3CN(C3CCC(=O)NC3=O)C4=O)cn2)sc2c1C(c1ccc(Cl)cc1)=NCc1nnc(C)n1-2` (stereo not drawn) [Cpd. No. 7, 3-(4-((4-(6-((4-(4-chlorophenyl)-3,9-dimethyl-6H-thieno[3,2-f][1,2,4]triazolo[4,3-a][1,4]diazepin-2-yl)ethynyl)pyridin-3-yl)butyl)amino)-1-oxoisoindolin-2-yl)piperidine-2,6-dione] are 0.81 nM, 4.2 nM, 6.08 nM and 10.7 nM.
As to `Cc1c(C#Cc2ccc(CCCCNc3cccc4c3CN(C3CCC(=O)NC3=O)C4=O)cn2)sc2c1C(c1ccc(Cl)cc1)=N[C@@H](C)c1nnc(C)n1-2` (stereo partly drawn) [Cpd. No. 8, 3-(4-((4-(6-(((S)-4-(4-chlorophenyl)-3,6,9-trimethyl-6H-thieno[3,2-f][1,2,4]triazolo[4,3-a][1,4]diazepin-2-yl)ethynyl)pyridin-3-yl)butyl)amino)-1-oxoisoindolin-2-yl)piperidine-2,6-dione], the IC50 in the assay with RS4; 11 came to 0.19 nM; with MOLM-13 (96 h), 0.26 nM; with MDA-MB-231 (96 h), 0.17 nM; in the assay with MDA-MB-468, 0.65 nM.
On the same counts, the results for `Cc1c(C#Cc2ccc(CCCCOc3cccc4c3C(=O)N(C3CCC(=O)NC3=O)C4=O)cn2)sc2c1C(c1ccc(Cl)cc1)=NCc1nnc(C)n1-2` (stereo not drawn) [Cpd. No. 9, 4-(4-(6-((4-(4-chlorophenyl)-3,9-dimethyl-6H-thieno[3,2-f][1,2,4]triazolo[4,3-a][1,4]diazepin-2-yl)ethynyl)pyridin-3-yl)butoxy)-2-(2,6-dioxopiperidin-3-yl)isoindoline-1,3-dione] are 2.3 nM, 19 nM, 20.4 nM and 33 nM.
Take `Cc1c(C#Cc2ccc(CCCCOc3cccc4c3C(=O)N(C3CCC(=O)NC3=O)C4=O)cn2)sc2c1C(c1ccc(Cl)cc1)=N[C@@H](C)c1nnc(C)n1-2` (stereo partly drawn) [Cpd. No. 10, 4-(4-(6-(((S)-4-(4-chlorophenyl)-3,6,9-trimethyl-6H-thieno[3,2-f][1,2,4]triazolo[4,3-a][1,4]diazepin-2-yl)ethynyl)pyridin-3-yl)butoxy)-2-(2,6-dioxopiperidin-3-yl)isoindoline-1,3-dione]: the IC50 worked out at 0.26 nM with RS4; 11, 2.5 nM in the assay on MOLM-13 (96 h), 1.6 nM in the assay on MDA-MB-231 (96 h) and 5.2 nM in the assay on MDA-MB-468.
In the case of `Cc1c(C#Cc2cnn(CCCC#Cc3cccc4c3CN(C3CCC(=O)NC3=O)C4=O)c2)sc2c1C(c1ccc(Cl)cc1)=NCc1nnc(C)n1-2` (stereo not drawn) [Cpd. No. 20, 3-(4-(5-(4-((4-(4-chlorophenyl)-3,9-dimethyl-6H-thieno[3,2-f][1,2,4]triazolo[4,3-a][1,4]diazepin-2-yl)ethynyl)-1H-pyrazol-1-yl)pent-1-yn-1-yl)-1-oxoisoindolin-2-yl)piperidine-2,6-dione], the IC50 amounted to 0.1 nM in the assay on RS4; 11; 0.8 nM in the assay with MOLM-13 (MOLM-13, 96 h); 0.08 nM in the assay with MDA-MB-231 (MDA-MB-231, 96 h); 0.2 nM in the assay with MDA-MB-468.
On the same counts, the results for `Cc1c(C#Cc2cnn(CCCCNc3cccc4c3C(=O)N(C3CCC(=O)NC3=O)C4=O)c2)sc2c1C(c1ccc(Cl)cc1)=NCc1nnc(C)n1-2` (stereo not drawn) [Cpd. No. 21, 4-((4-(4-((4-(4-chlorophenyl)-3,9-dimethyl-6H-thieno[3,2-f][1,2,4]triazolo[4,3-a][1,4]diazepin-2-yl)ethynyl)-1H-pyrazol-1-yl)butyl)amino)-2-(2,6-dioxopiperidin-3-yl)isoindoline-1,3-dione] are 0.3 nM, 1.1 nM, 3.8 nM and 6.5 nM.
As for `Cc1c(C#Cc2cnn(CCCCNc3cccc4c3C(=O)N(C3CCC(=O)NC3=O)C4=O)c2)sc2c1C(c1ccc(Cl)cc1)=N[C@@H](C)c1nnc(C)n1-2` (stereo partly drawn) [Cpd. No. 22, 4-((4-(4-(((S)-4-(4-chlorophenyl)-3,6,9-trimethyl-6H-thieno[3,2-f][1,2,4]triazolo[4,3-a][1,4]diazepin-2-yl)ethynyl)-1H-pyrazol-1-yl)butyl)amino)-2-(2,6-dioxopiperidin-3-yl)isoindoline-1,3-dione], the IC50 with RS4; 11 was found to be 0.2 nM; with MOLM-13 (MOLM-13, 96 h), 0.9 nM; with MDA-MB-231 (MDA-MB-231, 96 h), 0.9 nM; in the assay on MDA-MB-468, 1.8 nM.
With `Cc1c(C#Cc2cnn(CCCCCc3cccc4c3CN(C3CCC(=O)NC3=O)C4=O)c2)sc2c1C(c1ccc(Cl)cc1)=NCc1nnc(C)n1-2` (stereo not drawn) [Cpd. No. 23, 3-(4-(5-(4-((4-(4-chlorophenyl)-3,9-dimethyl-6H-thieno[3,2-f][1,2,4]triazolo[4,3-a][1,4]diazepin-2-yl)ethynyl)-1H-pyrazol-1-yl)pentyl)-1-oxoisoindolin-2-yl)piperidine-2,6-dione], the IC50 turned out to be 0.3 nM in the assay with RS4; 11; 1.9 nM in the assay on MOLM-13 (MOLM-13, 96 h); 1.7 nM in the assay on MDA-MB-231 (MDA-MB-231, 96 h); 4.2 nM in the assay with MDA-MB-468.
Regarding `Cc1c(C#Cc2cnn(CCCCCc3cccc4c3CN(C3CCC(=O)NC3=O)C4=O)c2)sc2c1C(c1ccc(Cl)cc1)=N[C@@H](C)c1nnc(C)n1-2` (stereo partly drawn) [Cpd. No. 24, 3-(4-(5-(4-(((S)-4-(4-chlorophenyl)-3,6,9-trimethyl-6H-thieno[3,2-f][1,2,4]triazolo[4,3-a][1,4]diazepin-2-yl)ethynyl)-1H-pyrazol-1-yl)pentyl)-1-oxoisoindolin-2-yl)piperidine-2,6-dione], the 50% inhibitory concentration (IC50) is less than 0.015 nM in the assay on RS4; 11; less than 0.015 nM with MOLM-13 (MOLM-13, 96 h); less than 0.015 nM in the assay with MDA-MB-231 (MDA-MB-231, 96 h); less than 0.015 nM with MDA-MB-468.
For the compound `Cc1c(C#Cc2cnn(CCCC#Cc3cccc4c3C(=O)N(C3CCC(=O)NC3=O)C4=O)c2)sc2c1C(c1ccc(Cl)cc1)=NCc1nnc(C)n1-2` (stereo not drawn) [Cpd. No. 25, 4-(5-(4-((4-(4-chlorophenyl)-3,9-dimethyl-6H-thieno[3,2-f][1,2,4]triazolo[4,3-a][1,4]diazepin-2-yl)ethynyl)-1H-pyrazol-1-yl)pent-1-yn-1-yl)-2-(2,6-dioxopiperidin-3-yl)isoindoline-1,3-dione], the IC50 in the assay with RS4; 11 was found to be 1 nM; with MOLM-13 (MOLM-13, 96 h) it was 9.1 nM; in the assay with MDA-MB-231 (MDA-MB-231, 96 h), 24.2 nM; in the assay with MDA-MB-468, 34.9 nM.
Turning to `Cc1c(C#Cc2cn(CCCC#Cc3cccc4c3CN(C3CCC(=O)NC3=O)C4=O)cn2)sc2c1C(c1ccc(Cl)cc1)=NCc1nnc(C)n1-2` (stereo not drawn) [Cpd. No. 26, 3-(4-(5-(4-((4-(4-chlorophenyl)-3,9-dimethyl-6H-thieno[3,2-f][1,2,4]triazolo[4,3-a][1,4]diazepin-2-yl)ethynyl)-1H-imidazol-1-yl)pent-1-yn-1-yl)-1-oxoisoindolin-2-yl)piperidine-2,6-dione], the IC50 is greater than 10 nM in the assay with RS4; 11, 39.2 nM in the assay on MOLM-13 (96 h), greater than 100 nM in the assay with MDA-MB-231 (96 h) and greater than 100 nM with MDA-MB-468.
Take `Cc1c(C#Cc2cn(CCCC#Cc3cccc4c3C(=O)N(C3CCC(=O)NC3=O)C4=O)cn2)sc2c1C(c1ccc(Cl)cc1)=NCc1nnc(C)n1-2` (stereo not drawn) [Cpd. No. 27, 4-(5-(4-((4-(4-chlorophenyl)-3,9-dimethyl-6H-thieno[3,2-f][1,2,4]triazolo[4,3-a][1,4]diazepin-2-yl)ethynyl)-1H-imidazol-1-yl)pent-1-yn-1-yl)-2-(2,6-dioxopiperidin-3-yl)isoindoline-1,3-dione]: the IC50 is greater than 10 nM with RS4; 11; 32 nM with MOLM-13 (MOLM-13, 96 h); greater than 100 nM in the assay with MDA-MB-231 (MDA-MB-231, 96 h); greater than 100 nM with MDA-MB-468.
On to `Cc1c(C#Cc2cncn2CCCC#Cc2cccc3c2CN(C2CCC(=O)NC2=O)C3=O)sc2c1C(c1ccc(Cl)cc1)=NCc1nnc(C)n1-2` (stereo not drawn) [Cpd. No. 28, 3-(4-(5-(5-((4-(4-chlorophenyl)-3,9-dimethyl-6H-thieno[3,2-f][1,2,4]triazolo[4,3-a][1,4]diazepin-2-yl)ethynyl)-1H-imidazol-1-yl)pent-1-yn-1-yl)-1-oxoisoindolin-2-yl)piperidine-2,6-dione], for which the IC50 in the assay on RS4; 11 is greater than 10 nM; in the assay on MOLM-13 (MOLM-13, 96 h) it was 66.1 nM; in the assay on MDA-MB-231 (MDA-MB-231, 96 h), greater than 100 nM; in the assay on MDA-MB-468 it was greater than 100 nM.
Turning to `Cc1c(C#Cc2cncn2CCCC#Cc2cccc3c2C(=O)N(C2CCC(=O)NC2=O)C3=O)sc2c1C(c1ccc(Cl)cc1)=NCc1nnc(C)n1-2` (stereo not drawn) [Cpd. No. 29, 4-(5-(5-((4-(4-chlorophenyl)-3,9-dimethyl-6H-thieno[3,2-f][1,2,4]triazolo[4,3-a][1,4]diazepin-2-yl)ethynyl)-1H-imidazol-1-yl)pent-1-yn-1-yl)-2-(2,6-dioxopiperidin-3-yl)isoindoline-1,3-dione], the IC50 is 7 nM in the assay with RS4; 11; 22.8 nM in the assay on MOLM-13 (MOLM-13, 96 h); greater than 100 nM with MDA-MB-231 (MDA-MB-231, 96 h); greater than 100 nM in the assay with MDA-MB-468.
